From patent US6894059B1, “Compounds and methods for treatment of asthma, allergy and inflammatory disorders” (UCB S.A., priority 1999, dated 2005)
Where a name gives a salt, the structure may show the parent alone.

Legend:
human cloned H1 receptor = target: T1, human cloned H1 receptor (Homo sapiens, UniProt P35367); assay: CHO-K1 H1R binding assay (3H-pyrilamine displacement); conditions: CHO-K1 membranes, 3H-pyrilamine 2 nM, 3 hours at 37° C.; read-out: CHOH1 KI
T1 construct: expressed in transfected cells; host or cells: CHO-K1
Method: CHO—K1 cells expressing the human cloned H1 receptor are grown to confluence in tissue culture dishes. Cells are harvested using D-PBS buffer (JRH Biosciences), kept at 4° C., centrifuging to pellet cells (4° C., 500 g, 10 min). The final cell pellet is homogenized and resuspended using Tris/sucrose buffer (20 mM Tris, 250 mM sucrose, pH 74 at 4° C. Aliquots of the membrane preparation are stored at −70° C.
On the day of assay, the membrane preparation is thawed and centrifuged (TLA100.3 rotor, 4° C., 15 min, 23,000 rpm). The pellet is resuspended in Tris/sucrose buffer initially and then diluted further as necessary using assay buffer A (50 mM Na/KPO4, 2 mM MgCl2, 0.5% (w/v) BSA, pH 7.5).
For the binding assay, the membrane preparation, test compound and ^3H-pyrilamine (2 nM final) in buffer A with 1% (v/v) DMSO final are incubated in a 96-well polypropylene plate for 3 hours at 37° C. Non-specific binding is determined in the presence of 10 μM pyrilamine. A 96-well harvester (Packard) is used to harvest the 96-well plate onto a GF/B filter plate pre-treated with 0.1% (v/v) PEI. The plate is counted in a Packard Topcounter after adding Microscint 20 (Packard) scintillation fluid. The Ki for each compound at the histamine H1 receptor is then calculated from these counts.

[1] = target: T2, human 5-lipoxygenase enzyme (Homo sapiens, UniProt P09917); assay: Inhibition of LTB4 production in human whole blood stimulated with calcium ionophore A23187; type: cell-based; conditions: A23187 50 μM, LTB4 by EIA, read-out: HWB IC50
T2 construct: Blood is drawn from normal human volunteers into tubes containing heparin; endogenous in cells; host or cells: human whole blood, heparinized, stimulated with A23187
T2 sequence (P09917 1-674): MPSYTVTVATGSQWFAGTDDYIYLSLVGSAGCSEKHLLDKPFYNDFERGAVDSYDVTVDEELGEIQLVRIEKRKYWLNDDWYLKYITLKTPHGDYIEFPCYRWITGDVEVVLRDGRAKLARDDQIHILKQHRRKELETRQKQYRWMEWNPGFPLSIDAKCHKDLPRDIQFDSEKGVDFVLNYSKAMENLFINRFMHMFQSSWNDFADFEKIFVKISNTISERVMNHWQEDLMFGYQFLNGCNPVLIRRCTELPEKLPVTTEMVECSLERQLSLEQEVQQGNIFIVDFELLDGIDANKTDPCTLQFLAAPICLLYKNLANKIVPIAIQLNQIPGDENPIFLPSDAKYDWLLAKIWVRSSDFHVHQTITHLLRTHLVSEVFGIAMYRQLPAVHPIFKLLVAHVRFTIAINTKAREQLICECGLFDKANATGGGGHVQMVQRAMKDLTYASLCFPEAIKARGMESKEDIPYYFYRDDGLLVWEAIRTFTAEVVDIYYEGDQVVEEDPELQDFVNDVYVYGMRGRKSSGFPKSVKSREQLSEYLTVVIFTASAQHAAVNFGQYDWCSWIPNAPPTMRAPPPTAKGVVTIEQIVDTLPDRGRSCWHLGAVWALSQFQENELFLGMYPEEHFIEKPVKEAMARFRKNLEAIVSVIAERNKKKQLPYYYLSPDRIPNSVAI
Method: This assay examines the ability of a compound to inhibit leukotriene B4 Production from human blood stimulated with calcium ionophore. As this production of leukotriene B4 is mediated via the activation of the 5-lipoxygenase enzyme, this assay is predictive of a compound's ability to inhibit the human 5-lipoxygenase enzyme.
The procedure for the assay is as follows. Blood is drawn from normal human volunteers into tubes containing heparin. 1 ml of the heparinized blood is pipetted into a 1.5 ml polypropylene tube. To this sample is added either different concentrations of the test compound (5 μl) dissolved in DMSO or 5 μl of DMSO as a vehicle control. These samples are incubated in a water bath, at […] for 15 min. […] From this a percent inhibition of LTB4 production by each concentration of test compound is calculated and the IC50 for inhibition of LTB4 production for each test compound is determined.

T1 sequence (P35367 whole entry): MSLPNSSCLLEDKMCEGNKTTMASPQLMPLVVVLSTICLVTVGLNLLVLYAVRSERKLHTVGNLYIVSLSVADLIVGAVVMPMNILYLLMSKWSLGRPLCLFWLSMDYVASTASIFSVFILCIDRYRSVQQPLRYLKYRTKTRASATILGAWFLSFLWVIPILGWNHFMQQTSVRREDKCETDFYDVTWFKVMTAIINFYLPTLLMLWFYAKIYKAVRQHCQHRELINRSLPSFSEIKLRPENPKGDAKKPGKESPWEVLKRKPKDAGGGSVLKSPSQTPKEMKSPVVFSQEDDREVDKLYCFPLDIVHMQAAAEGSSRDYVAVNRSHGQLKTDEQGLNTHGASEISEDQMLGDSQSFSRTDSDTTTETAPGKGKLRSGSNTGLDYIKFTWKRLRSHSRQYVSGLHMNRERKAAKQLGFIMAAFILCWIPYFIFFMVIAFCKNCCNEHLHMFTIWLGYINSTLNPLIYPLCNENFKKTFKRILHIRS

melting point [°C]	SMILES	other results
70 to 75	NC(=O)N(O)CCC#Cc1ccc(OCCN2CCN([C@H](c3ccccc3)c3ccc(Cl)cc3)CC2)cc1[N+](=O)[O-] [Compound 90, N-{4-[4-(2-{4-[(R)-(4-chlorophenyl)(phenyl)methyl]-1-piperazinyl}ethoxy)-2-nitrophenyl]-3-butynyl}-N-hydroxyurea]	
78	NC(=O)N(O)CCC#Cc1ccc(OCCCN2CCN(C(c3ccc(F)cc3)c3ccc(F)cc3)CC2)cc1 [Compound 83, amino-N-{4-[4-(3-{4-[bis(4-fluorophenyl)methyl]piperazinyl}propoxy)phenyl]but-3-ynyl}-N-hydroxyamide]	
60 to 65	NC(=O)N(O)CCCCc1ccc(OCCCN2CCN([C@H](c3ccccc3)c3ccc(Cl)cc3)CC2)cc1 [Compound 79, N-{4-[4-(3-{4-[(1R)(4-chlorophenyl)phenylmethyl]piperazinyl}propoxy)phenyl]butyl}amino-N-hydroxyamide]	
153 to 156	NC(=O)c1cc(C#CCCN(O)C(N)=O)ccc1OCCN1CCN([C@H](c2ccccc2)c2ccc(Cl)cc2)CC1 (as salt: citrate) [Compound 93, 5-{4-[(aminocarbonyl) (hydroxy)amino]-1-butynyl}-2-(2-{4-[(R)-(4-chlorophenyl)(phenyl)methyl]-1-piperazinyl}ethoxy)benzamide]	
169 to 172	NC(=O)c1cc(C#CCCN(O)C(N)=O)ccc1OCCN1CCN([C@H](c2ccccc2)c2ccc(Cl)cc2)CC1 (as salt: maleate) [Compound 91, 5-{4-[(aminocarbonyl) (hydroxy)amino]-1-butynyl}-2-(2-{4-[(R)-(4-chlorophenyl)(phenyl)methyl]-1-piperazinyl}ethoxy)benzamide]	
65 to 70	NC(=O)N(O)CCC#Cc1ccc(OCCN2CCN(C(c3ccc(F)cc3)c3ccc(F)cc3)CC2)cc1[N+](=O)[O-] [Compound 87, N-{4-[4-(2-{4-[bis(4-fluorophenyl)methyl]-1-piperazinyl}ethoxy)-2-nitrophenyl]-3-butynyl}-N-hydroxyurea]	
30 to 80	NC(=O)N(O)CCCc1ccc(OCCCN2CCN(C(c3ccc(F)cc3)c3ccc(F)cc3)CC2)cc1 [Compound 86, N-{3-[4-(3-{4-[bis(4-fluorophenyl)methyl]-1-piperazinyl}propoxy)phenyl]propyl}-N-hydroxyurea]	
208	NC(=O)c1cc(C#CCCN(O)C(N)=O)ccc1OCCN1CCN([C@H](c2ccccc2)c2ccc(Cl)cc2)CC1 (as salt: HCl) [Compound 64, 2-(2-{4-[(1R)(4-chlorophenyl)phenylmethyl]piperazinyl}ethoxy)-5-[4-(aminohydroxycarbonyl-amino)but-1-ynyl]benzamide]	
140 to 145	NC(=O)N(O)CCCCc1ccc(OCCN2CCN(C(c3ccc(F)cc3)c3ccc(F)cc3)CC2)cc1 [Compound 88, N-{4-[4-(2-{4-[bis(4-fluorophenyl)methyl]-1-piperazinyl}ethoxy)phenyl]butyl}-N-hydroxyurea]	
162 to 165	NC(=O)c1cc(C#CCCN(O)C(N)=O)ccc1OCCN1CCN([C@H](c2ccccc2)c2ccc(Cl)cc2)CC1 (as salt: fumarate) [Compound 89, 5-{4-[(aminocarbonyl) (hydroxy)amino]-1-butynyl}-2-(2-{4-[(R)-(4-chlorophenyl)(phenyl)methyl]-1-piperazinyl}ethoxy)benzamide]	
52 to 90	NC(=O)N(O)CCCc1ccc(OCCCN2CCN([C@H](c3ccccc3)c3ccc(Cl)cc3)CC2)cc1 [Compound 82, N-{3-[4-(3-{4-[(1R)(4-chlorophenyl)phenylmethyl]piperazinyl}propoxy)phenyl]propyl}amino-N-hydroxyamide]	
138 to 140	NC(=O)c1cc(CCCCN(O)C(N)=O)ccc1OCCN1CCN(C(c2ccc(F)cc2)c2ccc(F)cc2)CC1 [Compound 85, 5-{4-[(aminocarbonyl) (hydroxy)amino]butyl}-2-(2-{4-[bis(4-fluorophenyl)methyl]-1-piperazinyl}ethoxy)benzamide]	
155 to 158	NC(=O)c1cc(C#CCCN(O)C(N)=O)ccc1OCCN1CCN([C@H](c2ccccc2)c2ccc(Cl)cc2)CC1 (as salt: tartrate) [Compound 92, 5-{4-[(aminocarbonyl) (hydroxy)amino]-1-butynyl}-2-(2-{4-[(R)-(4-chlorophenyl)(phenyl)methyl]-1-piperazinyl}ethoxy)benzamide]	
153 to 155	NC(=O)c1cc(C#CCCN(O)C(N)=O)ccc1OCCCN1CCN([C@H](c2ccccc2)c2ccc(Cl)cc2)CC1 [Compound 62, 2-[3-{4-[(1R)(4-chlorophenyl)phenylmethyl]piperazinyl}propoxy)-5-[4-(aminohydroxycarbonyl-amino)but-1-ynyl]benzamide]	
123 to 125	NC(=O)c1cc(CCCCN(O)C(N)=O)ccc1OCCCN1CCN([C@H](c2ccccc2)c2ccc(Cl)cc2)CC1 [Compound 84, 2-(3-{4-[(1R)(4-chlorophenyl)phenylmethyl]piperazinyl}propoxy)-5-[4-(aminohydroxycarbonyl-amino)butyl]benzamide]	
127 to 130	NC(=O)N(O)CCC#Cc1ccc(OCC#CCN2CCN([C@H](c3ccccc3)c3ccc(Cl)cc3)CC2)cc1 [Compound 95, N-(4-{4-[(4-{4-[(R)(4-chlorophenyl)(phenyl)methyl]-1-piperazinyl}-2-butynyl)oxy]phenyl}-3-butynyl)-N-hydroxyurea]	
156 to 158	NC(=O)c1cc(C#CCCN(O)C(N)=O)ccc1OCCN1CCN([C@H](c2ccccc2)c2ccc(Cl)cc2)CC1 [Compound 35, 2-(2-{4-[(1R)(4-chlorophenyl)phenylmethyl]piperazinyl}ethoxy)-5-[4-(aminohydroxycarbonyl-amino)but-1-ynyl]benzamide]	
	NC(=O)N(O)CCOCCN1CCN([C@@H](c2ccccc2)c2ccc(Cl)cc2)CC1 [Compound 22, N-[2-(2-{4-[(1R)(4-chlorophenyl)phenylmethyl]piperazinyl}ethoxy)ethyl] amino-N-hydroxyamide]	Ki (human cloned H1 receptor): 0.008 µM; IC50 [1]: 1.47 µM
148 to 150	NC(=O)N(O)CCCCc1ccc(OCCN2CCN([C@H](c3ccccc3)c3ccc(Cl)cc3)CC2)cc1 [Compound 17, N-{4-[4-(2-{4-[(1R)(4-chlorophenyl)phenylmethyl]piperazinyl}ethoxy)phenyl]butyl}amino-N-hydroxyamide]	
64 to 66	NC(=O)N(O)CCCOc1ccc(CCCN2CCN([C@H](c3ccccc3)c3ccc(Cl)cc3)CC2)cc1 [Compound 94, N-{3-[4-[3-{4-[(R)-(4-chlorophenyl)(phenyl)methyl]-1-piperazinyl}propyl]phenoxy]propyl}-N-hydroxyurea]	
90 to 95	CC(=O)Nc1cc(C#CCCN(O)C(N)=O)ccc1OCCN1CCN([C@H](c2ccccc2)c2ccc(Cl)cc2)CC1 [Compound 77, N-[2-(2-{4-[(1R)(4-chlorophenyl)phenylmethyl]piperazinyl}ethoxy)-5-[4-(aminohydroxycarbonyl-amino)but-1-ynyl]phenyl] acetamide]	

SMILES	melting point [°C]	other results
NC(=O)N(O)CCCCc1ccc(OCCCCN2CCN([C@H](c3ccccc3)c3ccc(Cl)cc3)CC2)cc1 (as salt: HCl) [Compound 76, N-{4-[4-(4-{4-[(1R)(4-chlorophenyl)phenylmethyl]piperazinyl}butoxy)phenyl]butyl}amino-N-hydroxyamide]	121 to 123	
NC(=O)N(O)CCC#Cc1ccc(OCCCCN2CCN(C(c3ccc(F)cc3)c3ccc(F)cc3)CC2)cc1 [Compound 80, amino-N-{4-[4-(4-{4-[bis(4-fluorophenyl)methyl]piperazinyl}butoxy)phenyl]but-3-ynyl}-N-hydroxyamide]	64 to 68	
